As a reminder, the Kd is the constant that tells how readily two partners part at equilibrium.

This experiment addresses T1, MD-2 (TLR4/MD-2 complex) (Homo sapiens, UniProt Q9Y6Y9).
T1 construct: gene LY96; Recombinant human TLR4/MD2 complex; with TLR4
Put plainly: SPR (Biacore X100) on immobilized recombinant human TLR4/MD-2; agonism supported in HEK-Blue hTLR4 cells. The class given is binding. A general note: In SPR one partner is held on a chip, and binding of the other changes the refractive index at the surface.

T1 sequence (Q9Y6Y9 19-160): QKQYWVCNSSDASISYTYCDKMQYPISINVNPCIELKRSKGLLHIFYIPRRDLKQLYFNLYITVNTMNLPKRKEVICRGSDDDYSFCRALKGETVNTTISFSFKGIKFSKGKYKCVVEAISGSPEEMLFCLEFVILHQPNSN
T1 sequence (O00206 24-839 partner): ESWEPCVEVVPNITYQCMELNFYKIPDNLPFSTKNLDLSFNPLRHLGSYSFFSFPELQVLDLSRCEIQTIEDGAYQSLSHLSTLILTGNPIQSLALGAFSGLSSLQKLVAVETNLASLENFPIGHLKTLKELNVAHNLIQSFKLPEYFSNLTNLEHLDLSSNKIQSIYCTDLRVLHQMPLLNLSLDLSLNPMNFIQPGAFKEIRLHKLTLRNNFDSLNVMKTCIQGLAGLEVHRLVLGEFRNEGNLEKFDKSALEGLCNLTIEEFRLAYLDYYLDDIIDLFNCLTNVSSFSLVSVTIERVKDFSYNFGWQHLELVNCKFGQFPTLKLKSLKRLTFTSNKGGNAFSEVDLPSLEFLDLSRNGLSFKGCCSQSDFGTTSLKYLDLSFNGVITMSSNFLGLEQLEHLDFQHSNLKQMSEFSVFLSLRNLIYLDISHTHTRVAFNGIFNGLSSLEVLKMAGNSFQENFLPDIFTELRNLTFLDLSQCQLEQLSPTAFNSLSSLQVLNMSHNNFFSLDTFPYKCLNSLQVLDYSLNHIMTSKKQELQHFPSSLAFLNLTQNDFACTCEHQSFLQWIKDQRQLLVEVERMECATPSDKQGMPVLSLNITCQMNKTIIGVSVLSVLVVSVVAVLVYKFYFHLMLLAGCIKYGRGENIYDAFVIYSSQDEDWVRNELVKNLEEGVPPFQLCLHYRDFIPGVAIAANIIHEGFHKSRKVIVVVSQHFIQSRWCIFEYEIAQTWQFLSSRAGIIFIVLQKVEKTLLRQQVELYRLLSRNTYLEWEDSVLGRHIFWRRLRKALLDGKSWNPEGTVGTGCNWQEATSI

For the compound `CCCCCCCCCCCCCC(=O)N[C@H]1[C@@H](OP(=O)(O)O)O[C@H](CO)[C@@H](OC(=O)CCCCCCCCCCCCC)[C@@H]1OC(=O)CCCCCCCCCCCCC` [FP11], the Kd stood at 180 nM.

With `CCCCCCCCCCCC(=O)N[C@H]1[C@@H](OP(=O)(O)O)O[C@H](CO)[C@@H](OC(=O)CCCCCCCCCCC)[C@@H]1OC(=O)CCCCCCCCCCC` [FP18], the Kd came to 570 nM.
